Reference: patent US8541464B2, “Treatment of atrial fibrillation” (HUYA Biosciences International LLC, priority 2009, dated 2013)

Tests used:
Fast Na [1] = assay: Ion channel profiling in isolated atrial cardiomyocytes; format: cell-based; conditions: Rabbit/atria isolated atrial cardiomyocytes
L-Ca = molecular target: T1, L-Ca (Oryctolagus cuniculus, UniProt P15381); assay: as above; format: cell-based; conditions: Rabbit/atria isolated atrial cardiomyocytes
T1 construct: in isolated atrial cardiomyocytes; endogenous in cells; host or cells: isolated rabbit atrial cardiomyocytes

Ito [2] = assay: as above; format: cell-based; conditions: Rabbit/atria isolated atrial cardiomyocytes
IKr [3] = molecular target: T2, IKr (Oryctolagus cuniculus, UniProt Q8WNY2); assay: as above; format: cell-based; conditions: Rabbit/atria isolated atrial cardiomyocytes
T2 construct: in isolated atrial cardiomyocytes; endogenous in cells; host or cells: isolated rabbit atrial cardiomyocytes
T2 sequence (Q8WNY2 whole entry): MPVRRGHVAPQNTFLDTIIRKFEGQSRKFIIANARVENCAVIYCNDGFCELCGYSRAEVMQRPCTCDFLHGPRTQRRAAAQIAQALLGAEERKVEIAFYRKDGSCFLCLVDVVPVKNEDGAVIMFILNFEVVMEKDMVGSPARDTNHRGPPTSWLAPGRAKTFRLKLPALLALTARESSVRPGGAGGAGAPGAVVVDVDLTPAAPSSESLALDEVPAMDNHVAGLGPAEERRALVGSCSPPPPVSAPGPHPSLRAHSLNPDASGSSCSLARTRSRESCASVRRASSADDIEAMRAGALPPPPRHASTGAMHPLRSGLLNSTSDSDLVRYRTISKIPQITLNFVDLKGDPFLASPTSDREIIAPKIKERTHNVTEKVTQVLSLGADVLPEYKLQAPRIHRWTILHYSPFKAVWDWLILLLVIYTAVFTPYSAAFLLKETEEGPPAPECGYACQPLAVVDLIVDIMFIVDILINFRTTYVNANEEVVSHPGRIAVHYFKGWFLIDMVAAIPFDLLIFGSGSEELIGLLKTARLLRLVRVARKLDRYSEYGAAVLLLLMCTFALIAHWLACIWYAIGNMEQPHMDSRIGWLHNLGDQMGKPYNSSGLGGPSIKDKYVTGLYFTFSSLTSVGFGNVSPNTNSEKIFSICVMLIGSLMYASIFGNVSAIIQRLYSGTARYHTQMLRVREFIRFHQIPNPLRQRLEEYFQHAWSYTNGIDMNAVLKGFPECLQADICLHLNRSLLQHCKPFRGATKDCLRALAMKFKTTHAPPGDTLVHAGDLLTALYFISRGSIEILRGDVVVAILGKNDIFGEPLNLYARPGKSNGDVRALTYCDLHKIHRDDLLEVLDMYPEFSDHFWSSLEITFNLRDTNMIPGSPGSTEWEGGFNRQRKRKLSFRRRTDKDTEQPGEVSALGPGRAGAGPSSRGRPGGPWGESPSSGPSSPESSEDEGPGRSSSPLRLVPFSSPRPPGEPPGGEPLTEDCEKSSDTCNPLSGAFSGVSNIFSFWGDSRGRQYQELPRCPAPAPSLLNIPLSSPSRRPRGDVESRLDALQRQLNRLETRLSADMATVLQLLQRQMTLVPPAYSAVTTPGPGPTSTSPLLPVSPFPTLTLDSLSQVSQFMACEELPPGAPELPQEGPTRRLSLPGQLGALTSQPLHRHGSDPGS

IKach = assay: as above; format: cell-based; conditions: Rabbit/atria isolated atrial cardiomyocytes
Fast Na [4] = molecular target: T3, Fast Na (Homo sapiens, UniProt Q14524); assay: as above; format: cell-based; conditions: Human/atria isolated atrial cardiomyocytes
T3 construct: in isolated atrial cardiomyocytes; endogenous in cells; host or cells: isolated human atrial cardiomyocytes

Ito [5] = molecular target: T4, Ito (Homo sapiens, UniProt Q9UK17); assay: as above; format: cell-based; conditions: Human/atria isolated atrial cardiomyocytes
T4 construct: in isolated atrial cardiomyocytes; endogenous in cells; host or cells: isolated human atrial cardiomyocytes
T4 sequence (Q9UK17 whole entry): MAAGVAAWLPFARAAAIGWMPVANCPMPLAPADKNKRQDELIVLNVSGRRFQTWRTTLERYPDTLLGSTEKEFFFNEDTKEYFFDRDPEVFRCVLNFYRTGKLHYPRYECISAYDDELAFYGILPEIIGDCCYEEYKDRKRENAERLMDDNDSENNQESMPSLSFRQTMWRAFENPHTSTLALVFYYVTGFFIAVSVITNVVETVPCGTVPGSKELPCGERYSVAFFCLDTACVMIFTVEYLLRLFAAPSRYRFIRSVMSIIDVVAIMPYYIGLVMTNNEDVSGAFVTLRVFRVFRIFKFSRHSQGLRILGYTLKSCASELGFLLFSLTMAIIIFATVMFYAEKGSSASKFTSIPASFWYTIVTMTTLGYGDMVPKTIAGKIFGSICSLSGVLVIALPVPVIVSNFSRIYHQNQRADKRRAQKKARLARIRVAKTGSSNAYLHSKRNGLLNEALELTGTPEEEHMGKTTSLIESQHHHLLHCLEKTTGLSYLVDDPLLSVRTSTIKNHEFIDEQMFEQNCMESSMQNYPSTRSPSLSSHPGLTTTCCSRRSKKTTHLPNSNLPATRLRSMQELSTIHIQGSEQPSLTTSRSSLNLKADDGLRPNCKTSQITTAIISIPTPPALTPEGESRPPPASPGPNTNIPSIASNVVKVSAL
T4 sequence (Q9NS61 whole entry partner): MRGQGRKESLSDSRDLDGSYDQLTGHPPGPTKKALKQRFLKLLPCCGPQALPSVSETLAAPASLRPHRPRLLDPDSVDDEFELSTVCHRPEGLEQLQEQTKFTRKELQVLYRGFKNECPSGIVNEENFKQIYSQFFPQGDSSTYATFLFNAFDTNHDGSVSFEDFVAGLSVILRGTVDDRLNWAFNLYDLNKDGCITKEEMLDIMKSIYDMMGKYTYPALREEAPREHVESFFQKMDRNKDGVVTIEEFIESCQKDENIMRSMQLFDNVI

IKr [6] = molecular target: T5, IKr (Homo sapiens, UniProt Q12809); assay: as above; format: cell-based; conditions: Human/atria isolated atrial cardiomyocytes
T5 construct: in isolated atrial cardiomyocytes; endogenous in cells; host or cells: isolated human atrial cardiomyocytes
T5 sequence (Q12809 whole entry): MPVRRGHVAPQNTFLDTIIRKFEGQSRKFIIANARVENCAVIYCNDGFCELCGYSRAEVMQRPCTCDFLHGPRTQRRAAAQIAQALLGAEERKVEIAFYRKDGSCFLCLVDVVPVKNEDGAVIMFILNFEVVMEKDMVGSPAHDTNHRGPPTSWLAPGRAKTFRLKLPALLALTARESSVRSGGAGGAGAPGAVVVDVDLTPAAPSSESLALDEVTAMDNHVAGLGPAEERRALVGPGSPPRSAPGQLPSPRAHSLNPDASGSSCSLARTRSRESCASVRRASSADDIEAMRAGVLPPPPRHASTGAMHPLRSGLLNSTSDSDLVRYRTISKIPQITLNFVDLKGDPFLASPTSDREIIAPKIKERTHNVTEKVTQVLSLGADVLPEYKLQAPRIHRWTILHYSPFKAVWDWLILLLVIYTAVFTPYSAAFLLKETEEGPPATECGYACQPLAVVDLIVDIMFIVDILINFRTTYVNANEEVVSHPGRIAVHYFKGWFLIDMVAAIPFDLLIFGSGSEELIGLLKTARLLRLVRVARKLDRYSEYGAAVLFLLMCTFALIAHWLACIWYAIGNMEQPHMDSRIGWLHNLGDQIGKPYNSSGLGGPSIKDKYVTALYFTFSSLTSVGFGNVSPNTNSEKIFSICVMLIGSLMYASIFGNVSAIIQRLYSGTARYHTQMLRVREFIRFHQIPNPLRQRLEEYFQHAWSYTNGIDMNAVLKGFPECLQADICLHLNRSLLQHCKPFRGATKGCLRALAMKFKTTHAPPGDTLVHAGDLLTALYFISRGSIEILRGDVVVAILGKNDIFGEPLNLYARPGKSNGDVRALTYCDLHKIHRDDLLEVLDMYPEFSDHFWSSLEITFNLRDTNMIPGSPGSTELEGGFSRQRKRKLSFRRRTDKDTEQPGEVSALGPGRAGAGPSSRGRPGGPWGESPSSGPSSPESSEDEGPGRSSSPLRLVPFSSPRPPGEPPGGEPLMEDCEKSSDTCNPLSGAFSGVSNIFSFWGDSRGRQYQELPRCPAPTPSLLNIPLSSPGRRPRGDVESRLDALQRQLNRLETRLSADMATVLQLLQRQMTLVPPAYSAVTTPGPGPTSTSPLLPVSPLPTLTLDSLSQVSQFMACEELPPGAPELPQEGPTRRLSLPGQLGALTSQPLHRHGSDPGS

Slow Na = molecular target: T6, Slow Na (Homo sapiens, UniProt Q14524); assay: as above; format: cell-based; conditions: Human/atria isolated atrial cardiomyocytes
T6 construct: in isolated atrial cardiomyocytes; endogenous in cells; host or cells: isolated human atrial cardiomyocytes

IKur = molecular target: T7, IKur (Homo sapiens, UniProt P22460); assay: as above; format: cell-based; conditions: Human/atria isolated atrial cardiomyocytes
T7 construct: in isolated atrial cardiomyocytes; endogenous in cells; host or cells: isolated human atrial cardiomyocytes
T7 sequence (P22460 whole entry): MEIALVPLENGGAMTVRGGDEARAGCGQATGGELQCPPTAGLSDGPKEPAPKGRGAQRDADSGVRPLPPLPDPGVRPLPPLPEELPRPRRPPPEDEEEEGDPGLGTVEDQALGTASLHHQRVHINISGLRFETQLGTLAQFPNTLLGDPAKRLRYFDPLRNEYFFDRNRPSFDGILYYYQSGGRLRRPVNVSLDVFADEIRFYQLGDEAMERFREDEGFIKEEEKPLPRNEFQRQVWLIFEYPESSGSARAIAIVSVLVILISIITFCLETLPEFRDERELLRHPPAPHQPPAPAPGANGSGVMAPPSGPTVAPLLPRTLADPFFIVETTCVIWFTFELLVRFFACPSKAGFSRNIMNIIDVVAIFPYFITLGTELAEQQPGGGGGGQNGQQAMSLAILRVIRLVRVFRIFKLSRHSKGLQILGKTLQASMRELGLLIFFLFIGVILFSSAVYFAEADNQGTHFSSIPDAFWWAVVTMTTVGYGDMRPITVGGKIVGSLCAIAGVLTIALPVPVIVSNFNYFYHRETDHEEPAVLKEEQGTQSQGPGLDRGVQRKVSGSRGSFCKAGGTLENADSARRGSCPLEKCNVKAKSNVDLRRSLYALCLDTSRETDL

[7] = test system: ion channels in human atrial cardiomyocytes; conditions: sulcardine and its salts, in vitro, reported; cited from earlier work
post-MI conscious canine = conditions: sulcardine and salts; cited from earlier work
rabbit ventricular wedge = conditions: sulcardine and salts; cited from earlier work
post-MI canine = conditions: sulcardine and salts; cited from earlier work

Substance: 4-methoxy-N-(3,5-bis-(1-pyrrolidinyl)-4-hydroxy benzyl)benzene sulfonamide [sulcardine]
- IC50 (Fast Na [1]): 34 µM
- IC50 (L-Ca): 54 µM
- IC50 (Ito [2]): 26 µM
- IC50 (IKr [3]): 61 µM
- IC50 (IKach): 130 µM
- IC50 (Fast Na [4]): 26 µM
- IC50 (Ito [5]): 100 µM
- IC50 (IKr [6]): 40 µM
- IC50 (Slow Na): 45 µM
- IC50 (IKur): > 190 µM
- IC50 [7]: 26 to 100 µM
- pro-arrhythmic activity (post-MI conscious canine): lack significant pro-arrhythmic activity
- pro-arrhythmic activity (rabbit ventricular wedge): lack significant pro-arrhythmic activity
- defibrillation threshold (post-MI canine): do not increase defibrillation threshold
